Measurements taken from patent US20250145589A1, “PYRIDINE DERIVATIVE AND USE THEREOF” (SICHUAN HUIYU PHARMACEUTICAL CO., LTD., priority 2021, published 2025).
Like-named read-outs stand apart in the source and are kept apart here.

Tests used:
[1] = system: MIA PaCa-2-AMGR drug-resistant cell line; assay: MIA PaCa-2-AMGR drug-resistant cell proliferation inhibitory activity test; type: cell-based; conditions: 72 h, MIA PaCa-2-AMGR drug-resistant cells, 3 days incubation, CellTiter-Glo
Procedure: Test Example 7: Generation of MIA PaCa-2-AMGR drug-resistant cell line
(§1) MIA PaCa-2 cells were seeded and cultured at 50 to 70% confluence in six-well plate with DMEM (10% FBS+2.5% horse serum) medium at 37° C. with 5% CO2. AMG510 was added for induction at three starting concentrations of 1 nM, 10 nM and 50 nM, and the medium containing the same concentration of AMG510 was replaced every 3 days. Cells were passaged once they reached confluence. After every two passages at a given concentration of drug, the concentration was increased in a 3-fold increment until final concentrations of 1 μM for AMG510 was achieved.
(§2) MIA PaCa-2-AMGR cells in logarithmic growth phase were collected and seeded into a clear-bottom 96-well plate at a density of 4×10^3 cells per well in 80 μL of medium, and then incubated overnight at 37° C. with 5% CO2. The compounds were serially diluted 5-fold in DMSO to obtain 8 concentrations, and then further diluted with DMEM (10% FBS+2.5% horse serum) cell culture medium to obtain the working solutions (5×), 20 μL of each working solution was added to the cell culture supernatant in each well, and the plate was further incubated for 3 days at 37° C. with 5% CO2. The plate was then equilibrated with CellTiter-Glo® reagent at room temperature (25° C.) for 10-30 minutes. After aspirating 50 μL of the medium, 50 μL of CellTiter-Glo® reagent was added. The cells were thoroughly mixed with the CellTiter-Glo® reagent using a microplate shaker for 2 minutes, and then incubated at room temperature for 10 minutes. The 96-well plate was placed in a multi-mode microplate reader to record the luminescence values (RLU).
(§3) The inhibitory rate was calculated using the following formula: […]
Data were analyzed using GraphPad Prism for IC50 values (Note: The negative control refers to the group without inhibitor) The data were presented m Table 9

PI3Kα = PI3Kα (Homo sapiens (Human), UniProt P42336); assay: Inhibition of PI3Kα efficacy assay (ADP-Glo kinase assay); type: biochemical; conditions: read-out: PI3Kα inhibitory activity (IC50)
In short: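 Eight five-fold dilutions of compound (2 mM DMSO stock) tested; kinase reaction with PI and ATP ran 60 min at RT, followed by ADP-Glo and detection reagent steps of 40 min each. Four-parameter logistic fitting gave IC50 values.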

[2] = system: NCI-H358-AMGR drug-resistant cell line; assay: NCI-H358-AMGR drug-resistant cell proliferation inhibitory activity test; type: cell-based; conditions: 72 h; NCI-H358-AMGR drug-resistant cells, 3 days incubation, CellTiter-Glo
Procedure: Test Example 6t Generation of NCI-H358-AMGR Drug-Resistant Cell Line
as §1, with “NCI-H358 cells” for “MIA PaCa-2 cells”, “with RPMI-640” for “with DMEM”, “(10% FBS)” for “(10% FBS+2.5% horse serum)”, “with 5%4” for “with 5%”, “After every,” for “After every”, “a 3-old” for “a 3-fold”
as §2, with “NCI-H358-AMGR cells” for “MIA PaCa-2-AMGR cells”, “with RPMI-640)” for “with DMEM”, “(10% FBS)” for “(10% FBS+2.5% horse serum)”, “of CellTiter-Glo®,” for “of CellTiter-Glo®”, “the CellTiter-Glo®,” for “the CellTiter-Glo®”, “The […]” for “The 96-well”
as §3
Data were analyzed using GraphPad Prism for IC50 values (Note: The negative control refers to the group without inhibitor).

[3] = system: MIA PaCa-2 cells (KRAS G12C mutant); assay: MIA PaCa-2 cell anti-proliferation (CellTiter-Glo); type: cell-based; conditions: Homo sapiens, 72 h; MIA Paca-2 cells, 3 days, Table 7; read-out: MIA PaCa-2 (IC50)
In short: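 Viable-cell luminescence (CellTiter-Glo, ≥30 min at 25 °C) measured after a 3-day, 37 °C exposure to compounds at 9 points, 4-fold spaced, in DMEM containing 10% FBS plus 2.5% horse serum. IC50 derived versus no-inhibitor wells.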

[4] = system: NCI-H358 cells (KRAS G12C mutant); assay: NCI-H358 cell proliferation inhibition (CellTiter-Glo); type: cell-based; conditions: Homo sapiens, NCI-H358, 72 h; H358 cells (G12C mutation), 3 days, Table 6; read-out: NCI-H358 (IC50)
KRAS^G12C-SOS1 = KRAS^G12C-SOS1 (Homo sapiens (Human), UniProt P01116, G12C); assay: HTRF KRAS G12C/SOS1 binding assay; conditions: Table 5
Procedure: Initially, a 2 mM stock solution of the test compound (dissolved in DMSO) was serially diluted in five-fold concentrations using DMSO to obtain eight working solutions 1 (200×). Subsequently, each of the eight working solutions 1 was further diluted in a 20-fold gradient by adding 5 μL into 95 μL of Diluent buffer, mixed completely with vortex mixer, resulting in eight working solutions 2 (10×). […] Subsequently, 5 μL of Anti-tag 1-Tb^3+ stock solution and 5 μL of Anti-tag2-XL665 were added to each well, mixed, and incubated at 4° C. for 3 hours. Remove the plate and read on an HTRF® compatible reader, with the excitation light wavelength set at 337 nm and readings recorded at 620 nm and 665 nm. The data results were presented as the ratio of the 665 nm signal value to the 620 nm signal value for each well, calculated as follows: […]. The inhibition rate was calculated using the following formula: […]
Data were analyzed using GraphPad Prism with log (inhibitor) vs. response-Variable Slope (four parameters) fitting calculations for IC50 values.

PI3Kδ = PI3Kδ (Homo sapiens (Human), UniProt O00329); assay: Inhibition of PI3Kδ efficacy assay (ADP-Glo kinase assay); type: biochemical; conditions: Table 4; read-out: PI3Kδ inhibitory activity (IC50)
In short: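 Luminescent ADP-Glo readout of PI3Kδ: after a 60 min RT reaction with PI/ATP substrate, ATP depletion (40 min) and ADP detection (40 min) steps followed. Compounds tested as eight five-fold serial dilutions; inhibition rates fitted to log(inhibitor) vs. response, variable slope, for IC50.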

KRAS^G12C-SOS1, sequence (P01116-2 other isoform, or with tags, fused parts or gaps G12C): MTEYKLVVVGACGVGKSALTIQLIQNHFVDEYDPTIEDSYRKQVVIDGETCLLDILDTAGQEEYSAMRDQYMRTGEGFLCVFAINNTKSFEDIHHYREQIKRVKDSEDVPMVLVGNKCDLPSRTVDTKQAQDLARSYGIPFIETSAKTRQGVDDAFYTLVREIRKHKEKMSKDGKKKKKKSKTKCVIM
PI3Kδ, sequence (O00329 whole entry): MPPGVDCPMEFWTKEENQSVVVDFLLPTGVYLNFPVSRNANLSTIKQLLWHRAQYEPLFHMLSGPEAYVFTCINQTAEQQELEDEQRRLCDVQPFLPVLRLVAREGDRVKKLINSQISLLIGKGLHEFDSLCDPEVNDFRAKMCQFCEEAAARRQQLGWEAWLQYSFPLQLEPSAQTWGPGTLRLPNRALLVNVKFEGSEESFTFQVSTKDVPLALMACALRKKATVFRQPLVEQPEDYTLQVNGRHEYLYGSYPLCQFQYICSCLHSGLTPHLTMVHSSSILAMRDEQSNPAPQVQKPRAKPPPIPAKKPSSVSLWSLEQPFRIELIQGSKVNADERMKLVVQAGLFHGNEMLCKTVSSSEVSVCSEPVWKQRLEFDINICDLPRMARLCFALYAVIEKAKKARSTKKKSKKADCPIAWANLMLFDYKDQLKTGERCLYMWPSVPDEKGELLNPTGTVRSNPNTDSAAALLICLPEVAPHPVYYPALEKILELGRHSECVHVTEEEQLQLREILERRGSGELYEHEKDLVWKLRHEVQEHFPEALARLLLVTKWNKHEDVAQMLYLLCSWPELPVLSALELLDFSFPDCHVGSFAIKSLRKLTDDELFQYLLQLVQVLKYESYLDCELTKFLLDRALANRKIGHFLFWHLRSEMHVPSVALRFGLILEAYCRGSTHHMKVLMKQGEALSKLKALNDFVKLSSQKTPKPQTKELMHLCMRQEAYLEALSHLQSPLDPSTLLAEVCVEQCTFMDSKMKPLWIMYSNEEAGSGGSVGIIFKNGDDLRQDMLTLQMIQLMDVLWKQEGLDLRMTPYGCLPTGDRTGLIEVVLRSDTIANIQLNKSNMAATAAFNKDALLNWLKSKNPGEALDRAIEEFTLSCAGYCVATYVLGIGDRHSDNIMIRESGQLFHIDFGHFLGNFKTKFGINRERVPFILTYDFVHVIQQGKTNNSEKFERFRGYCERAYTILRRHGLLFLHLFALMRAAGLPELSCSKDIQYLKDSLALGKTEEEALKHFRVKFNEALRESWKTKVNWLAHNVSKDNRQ
PI3Kδ, sequence (P27986 whole entry partner): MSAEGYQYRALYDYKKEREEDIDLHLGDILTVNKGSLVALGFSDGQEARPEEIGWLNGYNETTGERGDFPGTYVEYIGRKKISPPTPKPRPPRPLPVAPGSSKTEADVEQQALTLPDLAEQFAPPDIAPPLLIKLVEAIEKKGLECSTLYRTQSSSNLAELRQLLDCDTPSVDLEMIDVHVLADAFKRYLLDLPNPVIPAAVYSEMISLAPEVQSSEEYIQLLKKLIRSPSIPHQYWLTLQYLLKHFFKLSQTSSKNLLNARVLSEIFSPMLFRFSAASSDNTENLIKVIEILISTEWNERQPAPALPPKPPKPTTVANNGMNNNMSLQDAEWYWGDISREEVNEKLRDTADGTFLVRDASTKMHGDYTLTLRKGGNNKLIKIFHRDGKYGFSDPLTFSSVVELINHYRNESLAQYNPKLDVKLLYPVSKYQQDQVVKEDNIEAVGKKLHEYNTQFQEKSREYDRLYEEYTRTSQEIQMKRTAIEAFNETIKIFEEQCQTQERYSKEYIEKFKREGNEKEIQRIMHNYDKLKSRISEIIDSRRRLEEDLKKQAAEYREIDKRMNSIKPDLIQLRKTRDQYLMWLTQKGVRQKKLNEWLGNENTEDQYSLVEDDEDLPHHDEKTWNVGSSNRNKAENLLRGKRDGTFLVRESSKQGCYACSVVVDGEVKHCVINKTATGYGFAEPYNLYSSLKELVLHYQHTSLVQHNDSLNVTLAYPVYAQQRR
PI3Kα, sequence (P42336 whole entry): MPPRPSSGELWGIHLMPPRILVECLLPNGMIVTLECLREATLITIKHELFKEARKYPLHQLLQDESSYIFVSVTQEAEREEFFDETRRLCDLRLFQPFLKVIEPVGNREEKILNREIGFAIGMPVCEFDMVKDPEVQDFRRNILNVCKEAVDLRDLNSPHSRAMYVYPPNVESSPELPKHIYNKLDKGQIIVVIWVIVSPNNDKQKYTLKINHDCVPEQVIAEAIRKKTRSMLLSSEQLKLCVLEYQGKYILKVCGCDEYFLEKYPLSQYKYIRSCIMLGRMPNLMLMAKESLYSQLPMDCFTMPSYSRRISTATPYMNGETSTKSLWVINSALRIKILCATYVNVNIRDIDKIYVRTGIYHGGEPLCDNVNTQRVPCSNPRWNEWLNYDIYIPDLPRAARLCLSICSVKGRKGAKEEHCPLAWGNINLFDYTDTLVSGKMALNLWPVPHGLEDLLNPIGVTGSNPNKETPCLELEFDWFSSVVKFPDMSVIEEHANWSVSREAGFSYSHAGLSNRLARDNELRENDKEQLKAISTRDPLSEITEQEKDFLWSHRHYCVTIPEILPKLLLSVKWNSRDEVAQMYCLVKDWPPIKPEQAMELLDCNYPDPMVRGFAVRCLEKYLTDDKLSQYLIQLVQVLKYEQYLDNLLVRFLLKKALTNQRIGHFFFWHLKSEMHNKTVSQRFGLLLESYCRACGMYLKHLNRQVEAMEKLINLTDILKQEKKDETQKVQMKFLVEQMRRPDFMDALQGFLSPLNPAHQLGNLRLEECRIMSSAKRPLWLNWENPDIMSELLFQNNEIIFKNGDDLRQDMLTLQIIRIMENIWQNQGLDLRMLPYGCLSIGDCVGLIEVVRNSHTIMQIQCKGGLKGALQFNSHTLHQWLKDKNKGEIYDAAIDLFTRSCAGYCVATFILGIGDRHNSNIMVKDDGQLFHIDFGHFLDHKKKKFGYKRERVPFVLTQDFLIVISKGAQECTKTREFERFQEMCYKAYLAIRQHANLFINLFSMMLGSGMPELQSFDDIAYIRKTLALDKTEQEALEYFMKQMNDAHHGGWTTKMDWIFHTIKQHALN
PI3Kα, sequence (P27986 whole entry partner): as the sequence (P27986 whole entry partner) above

SMILES | IC50 [1] [µM] | IC50 (PI3Kα; Table 4) [µM] | IC50 [2] [µM] | IC50 [3] [µM] | IC50 [4] [µM] | IC50 (KRAS^G12C-SOS1) [µM] | IC50 (PI3Kδ) [µM] | IC50 (PI3Kα; Table 1) [µM]
COc1ncc(-c2ccc3ncnc(N4CCN(C(=O)/C=C/C(C)=O)CC4)c3c2)cc1NS(=O)(=O)c1c(C)cccc1F [Example 186, (E)-2-fluoro-N-(2-methoxy-5-(4-(4-(4-oxopent-2-enoyl)piperazin-1-yl)quinazolin-6-yl)pyridin-3-yl)-6-methyl-benzene-sulfonamide] | 0.0313 | 0.0024 | 0.0439 | 0.0529 | 0.0254 |  |  | 
COc1ncc(-c2ccc3ncnc(C4CCN(C(=O)/C=C/C(C)=O)CC4)c3n2)cc1NS(=O)(=O)c1c(F)cccc1Cl [Example 235, (E)-2-chloro-6-fluoro-N-(2-methoxy-5-(4-(1-(4-oxopent-2-enoyl)piperidin-4-yl)pyrido[3,2-d]pyrimidin-6-yl)pyridin-3-yl)benzenesulfonamide] |  | 0.0003 |  |  |  | 0.113 | 0.00238 | 
COc1ncc(-c2ccc3ncnc(C4CCN(C(=O)/C=C/C(C)=O)C4)c3c2)cc1NS(=O)(=O)c1ccc(F)cc1F (centres unmarked) [Example 247, (E)-2,4-difluoro-N-(2-methoxy-5-(4-(1-(4-oxopent-2-enoyl)pyrrolidin-3-yl)quinazolin-6-yl)pyridin-3-yl)benzenesulfonamide] |  | 0.00053 |  |  |  | 0.277 | 0.00333 | 
COc1ncc(-c2ccc3ncnc(N4CCN(C(=O)/C=C/C(C)=O)CC4)c3c2)cc1NS(=O)(=O)c1ccc(F)c2ccccc12 [Example 187, (E)-4-fluoro-N-(2-methoxy-5-(4-(4-(4-oxopent-2-enoyl)piperazin-1-yl)quinazolin-6-yl)pyridin-3-yl)naphthalene-1-sulfonamide] | 0.224 | 0.0046 | 0.373 | 0.173 | 0.14 |  |  | 
COc1ncc(-c2ccc3ncnc(C4=CCN(C(=O)/C=C/C(C)=O)CC4)c3n2)cc1NS(=O)(=O)c1c(F)cc(F)cc1F [Example 236, (E)-2,4,6-trifluoro-N-(2-methoxy-5-(4-(1-(4-oxopent-2-enoyl)-1,2,3,6-tetrahydropyridin-4-yl)pyrido[3,2-d]pyrimidin-6-yl)pyridin-3-yl)benzenesulfonamide] | 0.0288 | 0.0017 | 0.0447 | 0.0346 | 0.0195 |  |  | 
C=CC(=O)N1CCN(c2ncnc3ccc(-c4cnc(OC)c(NS(=O)(=O)c5ccc(F)cc5F)c4)cc23)CC1 [Example 1, N-(5-(4-(4-acryloylpiperazin-1-yl)quinazolin-6-yl)-2-methoxypyridin-3-yl)-2,4-difluorobenzenesulfonamide] | 0.036 |  | 0.027 | 0.098 | 0.021 |  |  | 0.00026
COc1ncc(-c2ccc3ncnc(C4=CCN(C(=O)/C=C/C(C)=O)CC4)c3n2)cc1NS(=O)(=O)c1c(F)cccc1Cl [Example 241, (E)-2-chloro-6-fluoro-N-(2-methoxy-5-(4-(1-(4-oxopent-2-enoyl)-1,2,3,6-tetrahydropyridin-4-yl)pyrido[3,2-d]pyrimidin-6-yl)pyridin-3-yl)benzenesulfonamide] |  | 0.00027 |  |  |  | 0.455 | 0.00296 | 
CC(=O)/C=C/C(=O)N1CCN(c2ncnc3ccc(-c4cnc(OC(F)(F)F)c(NS(=O)(=O)c5ccc(F)cc5F)c4)nc23)CC1 [Example 226, (E)-2,4-difluoro-N-(5-(4-(4-(4-oxopent-2-enoyl)piperazin-1-yl)pyrido[3,2-d]pyrimidin-6-yl)-2-(trifluoro-methoxy)pyridin-3-yl)benzene-sulfonamide] | 0.424 | 0.0014 | 0.359 | 0.357 | 0.248 |  |  | 
COc1ccc(S(=O)(=O)Nc2cc(-c3ccc4ncnc(N5CCN(C(=O)/C=C/C(C)=O)CC5)c4c3)cnc2OC)c(F)c1 [Example 185, (E)-2-fluoro-4-methoxy-N-(2-methoxy-5-(4-(4-(4-oxopent-2-enoyl)piperazin-1-yl)quinazolin-6-yl)pyridin-3-yl)benzene-sulfonamide] | 0.0457 | 0.0016 | 0.131 | 0.104 | 0.0694 |  |  | 
COc1ncc(-c2ccc3ncnc(N4CCN(C(=O)/C=C/C(C)=O)C[C@@H]4C)c3c2)cc1NS(=O)(=O)c1ccc(F)cc1F [Example 8, (S,E)-2,4-difluoro-N-(2-methoxy-5-(4-(2-methyl-4-(4-oxopent-2-enoyl)piperazin-1-yl)quinazolin-6-yl)pyridin-3-yl)benzenesulfonamide] | 0.249 |  | 0.0816 | 0.0736 | 0.0912 |  |  | 
COc1ncc(-c2ccc3ncnc(N4CCN(C(=O)/C=C/C(C)=O)CC4)c3n2)cc1NS(=O)(=O)c1c(C)cccc1F [Example 229, (E)-2-fluoro-N-(2-methoxy-5-(4-(4-(4-oxopent-2-enoyl)piperazin-1-yl)pyrido[3,2-d]pyrimidin-6-yl)pyridin-3-yl)-6-methyl-benzene-sulfonamide] | 0.0313 | 0.003 | 0.03 | 0.0408 | 0.024 |  |  | 
COc1ncc(-c2ccc3ncnc(N4[C@H](C)CN(C(=O)/C=C/C(C)=O)C[C@@H]4C)c3c2)cc1NS(=O)(=O)c1ccccc1F [Example 193, N-(5-(4-((2R,6S)-2,6-dimethyl-4-((E)-4-oxopent-2-enoyl)piperazin-1-yl)quinazolin-6-yl)-2-methoxypyridin-3-yl)-2-fluorobenzenesulfonamide] | 0.0662 | 0.0028 | 0.0216 | 0.115 | 0.0527 |  |  | 
